Literature values, collected in patent US20150101082A1, “PROCESSING SEEDS BY COLD PLASMA TREATMENT TO REDUCE AN APPARENT CONTACT ANGLE OF SEEDS COAT SURFACE” (priority 2012, published 2015).

Columns and labels:
mice [1] = conditions: inhalation, 7 hours
rats = conditions: oral
mice [2] = conditions: oral

| SMILES | LC50 (mice [1]) | LD50 (rats) | LD50 (mice [2]) |
| --- | --- | --- | --- |
| Nc1ccccc1 [Aniline] | 175 ppm | – | – |
| NN [Hydrazine] | – | ~60 mg/kg | ~60 mg/kg |
